Measurements reported in ChEMBL document CHEMBL4308897, “Antileishmanial activity and cytotoxicity of ent-beyerene diterpenoids” (Bioorg Med Chem, 2019).
Activity calls are given as the source filed them. No cut-off for these calls is given here.

Key:
[1] = Cytotoxicity against human U937 cells after 72 hrs by MTT assay; format: cell-based, U-937; conditions: read-out: LC50
Leishmania braziliensis [2] = test: Antileishmanial activity against Leishmania (Viannia) braziliensis HMOM/COL/88/UA301-EGFP intracellular amastigotes infected in human U937 cells after 72 hrs by flow cytometric analysis; format: functional, organism-based; conditions: HMOM/COL/88/UA301, U-937, 72 h
[3] = Selectivity index, ratio of LC50 for human U937 cells to EC50 for Leishmania (Viannia) braziliensis HMOM/COL/88/UA301-EGFP intracellular amastigotes infected in human U937 cells; format: toxicity, cell-based; conditions: read-out: Selectivity Index
Leishmania braziliensis [4] = test: Antileishmanial activity against Leishmania (Viannia) braziliensis HMOM/COL/88/UA301-EGFP infected in golden hamster assessed as parasitic load per milligram of tissue at 0.81 to 1.96% administered topically as cream formulation for 20 days measured 3 months post last dose by RT-PCR analysis; format: functional
Syrian golden hamster [5] = test: (§1) Antiinflammatory activity in golden hamster infected with Leishmania (Viannia) braziliensis HMOM/COL/88/UA301-EGFP assessed as migration of plasmocytes in skin at 0.81% to 1.96% administered topically as cream formulation for 20 days and measured 3 months post last treatment by histopathological analysis; format: functional, organism-based; conditions: Mesocricetus auratus
Leishmania braziliensis [6] = test: Antileishmanial activity against Leishmania (Viannia) braziliensis HMOM/COL/88/UA301-EGFP infected in golden hamster assessed as cure rate at 0.81% administered topically as cream formulation for 20 days measured 3 months post last dose relative to control; format: functional
Syrian golden hamster [7] = test: as §1, with “lymphocytes” for “plasmocytes”; format: functional, organism-based; conditions: Mesocricetus auratus
[8] = Toxicity in golden hamster infected with Leishmania (Viannia) braziliensis HMOM/COL/88/UA301-EGFP assessed as effect on serum creatinine level at 0.81% to 1.96% administered topically as cream formulation for 20 days and measured day 8 post last treatment; parameters: species or system Mesocricetus auratus; conditions: in vivo, topical_or_ocular, 480 h
[9] = Hepatotoxicity in golden hamster infected with Leishmania (Viannia) braziliensis HMOM/COL/88/UA301-EGFP assessed as infiltration of macrophages at 0.81% to 1.96% administered topically as cream formulation for 20 days measured 90 days post last dose by histopathological analysis; format: toxicity, Mesocricetus auratus; conditions: in vivo, topical_or_ocular, 2160 h
[10] = Hepatotoxicity in golden hamster infected with Leishmania (Viannia) braziliensis HMOM/COL/88/UA301-EGFP assessed as congestion at 0.81% to 1.96% administered topically as cream formulation for 20 days measured 90 days post last dose by histopathological analysis; format: toxicity, Mesocricetus auratus; conditions: in vivo, topical_or_ocular, 2160 h
[11] = Hepatotoxicity in golden hamster infected with Leishmania (Viannia) braziliensis HMOM/COL/88/UA301-EGFP assessed as hemosiderin pigmentation at 0.81% to 1.96% administered topically as cream formulation for 20 days measured 90 days post last dose by histopathological analysis; format: toxicity, Mesocricetus auratus; conditions: in vivo, topical_or_ocular, 2160 h
Leishmania braziliensis [12] = test: Antileishmanial activity against Leishmania (Viannia) braziliensis HMOM/COL/88/UA301-EGFP infected in golden hamster assessed as clinical improvement at 1.96% administered topically as cream formulation for 20 days measured 3 months post last dose relative to control; format: functional
Leishmania braziliensis [13] = test: Antileishmanial activity against Leishmania (Viannia) braziliensis HMOM/COL/88/UA301-EGFP infected in golden hamster assessed as relapse at 0.81% administered topically as cream formulation for 20 days measured 3 months post last dose relative to control; format: functional
[14] = Toxicity in golden hamster infected with Leishmania (Viannia) braziliensis HMOM/COL/88/UA301-EGFP assessed as effect on serum alanine aminotransferase level at 0.81% to 1.96% administered topically as cream formulation for 20 days and measured day 8 post last treatment; parameters: species or system Mesocricetus auratus; conditions: in vivo, topical_or_ocular, 480 h
Leishmania braziliensis [15] = test: Antileishmanial activity against Leishmania (Viannia) braziliensis HMOM/COL/88/UA301-EGFP infected in golden hamster assessed as clinical failure at 1.96% administered topically as cream formulation for 20 days measured 3 months post last dose relative to control; format: functional
Leishmania braziliensis [16] = test: Antileishmanial activity against Leishmania (Viannia) braziliensis HMOM/COL/88/UA301-EGFP infected in golden hamster assessed as cure rate at 1.96% administered topically as cream formulation for 20 days measured 3 months post last dose relative to control; format: functional
[17] = Toxicity in golden hamster infected with Leishmania (Viannia) braziliensis HMOM/COL/88/UA301-EGFP assessed as change in body weight at 0.81% to 1.96% administered topically as cream formulation for 20 days measured up to 90 days post last dose; parameters: species or system Mesocricetus auratus; conditions: in vivo, topical_or_ocular
[18] = Hepatotoxicity in golden hamster infected with Leishmania (Viannia) braziliensis HMOM/COL/88/UA301-EGFP assessed as vacuolar degeneration at 0.81% to 1.96% administered topically as cream formulation for 20 days measured 90 days post last dose by histopathological analysis; format: toxicity, Mesocricetus auratus; conditions: in vivo, topical_or_ocular, 2160 h
Leishmania braziliensis [19] = test: Antileishmanial activity against Leishmania (Viannia) braziliensis HMOM/COL/88/UA301-EGFP infected in golden hamster assessed as clinical failure at 0.81% administered topically as cream formulation for 20 days measured 3 months post last dose relative to control; format: functional
[20] = Hepatotoxicity in golden hamster infected with Leishmania (Viannia) braziliensis HMOM/COL/88/UA301-EGFP assessed as infiltration of lymphocytes at 0.81% to 1.96% administered topically as cream formulation for 20 days measured 90 days post last dose by histopathological analysis; format: toxicity, Mesocricetus auratus; conditions: in vivo, topical_or_ocular, 2160 h
Leishmania braziliensis [21] = test: Antileishmanial activity against Leishmania (Viannia) braziliensis HMOM/COL/88/UA301-EGFP infected in golden hamster assessed as clinical improvement at 0.81% administered topically as cream formulation for 20 days measured 3 months post last dose relative to control; format: functional
Leishmania braziliensis [22] = test: Antileishmanial activity against Leishmania (Viannia) braziliensis HMOM/COL/88/UA301-EGFP infected in golden hamster assessed as relapse at 1.96% administered topically as cream formulation for 20 days measured 3 months post last dose relative to control; format: functional
Syrian golden hamster [23] = test: as §1, with “macrophages” for “plasmocytes”; format: functional, organism-based; conditions: Mesocricetus auratus
[24] = Renal toxicity in golden hamster infected with Leishmania (Viannia) braziliensis HMOM/COL/88/UA301-EGFP assessed as vacuolar degeneration at 0.81% to 1.96% administered topically as cream formulation for 20 days measured 90 days post last dose by histopathological analysis; parameters: species or system Mesocricetus auratus; conditions: in vivo, topical_or_ocular, 2160 h
[25] = Toxicity in golden hamster infected with Leishmania (Viannia) braziliensis HMOM/COL/88/UA301-EGFP assessed as effect on serum BUN level at 0.81% to 1.96% administered topically as cream formulation for 20 days and measured day 8 post last treatment; parameters: species or system Mesocricetus auratus; conditions: in vivo, topical_or_ocular, 480 h
Syrian golden hamster [26] = test: Antiinflammatory activity in golden hamster infected with Leishmania (Viannia) braziliensis HMOM/COL/88/UA301-EGFP assessed as re-epithelialization in skin at 200 ug administered intralesionally twice per week for 4 weeks measured 3 months post last dose by histopathological analysis; format: functional, organism-based; conditions: Mesocricetus auratus
Leishmania braziliensis [27] = test: Antileishmanial activity against Leishmania (Viannia) braziliensis HMOM/COL/88/UA301-EGFP infected in golden hamster assessed as clinical failure at 200 ug administered intralesionally twice per week for 4 weeks measured 3 months post last dose relative to control; format: functional, organism-based
Leishmania braziliensis [28] = test: Antileishmanial activity against Leishmania (Viannia) braziliensis HMOM/COL/88/UA301-EGFP infected in golden hamster assessed as clinical improvement at 200 ug administered intralesionally twice per week for 4 weeks measured 3 months post last dose relative to control; format: functional, organism-based
Syrian golden hamster [29] = test: Antiinflammatory activity in golden hamster infected with Leishmania (Viannia) braziliensis HMOM/COL/88/UA301-EGFP assessed as migration of macrophages in skin at 200 ug administered intralesionally twice per week for 4 weeks measured 3 months post last dose by histopathological analysis; format: functional, organism-based; conditions: Mesocricetus auratus
Leishmania braziliensis [30] = test: Antileishmanial activity against Leishmania (Viannia) braziliensis HMOM/COL/88/UA301-EGFP infected in golden hamster assessed as cure rate at 200 ug administered intralesionally twice per week for 4 weeks measured 3 months post last dose relative to control; format: functional, organism-based
Syrian golden hamster [31] = test: Antiinflammatory activity in golden hamster infected with Leishmania (Viannia) braziliensis HMOM/COL/88/UA301-EGFP assessed as migration of plasmocytes in skin at 200 ug administered intralesionally twice per week for 4 weeks measured 3 months post last dose by histopathological analysis; format: functional, organism-based; conditions: Mesocricetus auratus
Syrian golden hamster [32] = test: Antiinflammatory activity in golden hamster infected with Leishmania (Viannia) braziliensis HMOM/COL/88/UA301-EGFP assessed as migration of lymphocytes in skin at 200 ug administered intralesionally twice per week for 4 weeks measured 3 months post last dose by histopathological analysis; format: functional, organism-based; conditions: Mesocricetus auratus
Leishmania braziliensis [33] = test: Antileishmanial activity against Leishmania (Viannia) braziliensis HMOM/COL/88/UA301-EGFP infected in golden hamster assessed as relapse at 200 ug administered intralesionally twice per week for 4 weeks measured 3 months post last dose relative to control; format: functional, organism-based

## CCOC(=O)[C@]1(C)CCC[C@@]2(C)[C@@H]3CC=C(C)C[C@@]3(CC#N)CC[C@@H]21
[1]
  CC50 at 72 h: 9.1 µM
Leishmania braziliensis [2]
  EC50: 14.1 µM
[3]
  selectivity ratio: 0.6

## CCOC(=O)[C@]1(C)CCC[C@@]2(C)[C@@H]3CC[C@@]4(C)C[C@]3(CC[C@@H]21)C/C4=N/O
[1]
  CC50 at 72 h: 15.7 µM
Leishmania braziliensis [2]
  EC50: 8.8 µM
[3]
  selectivity ratio: 1.8

## Cc1ccc(S(=O)(=O)N/N=C2/C[C@]34CC[C@H]5[C@@](C)(CCC[C@@]5(C)C(=O)O)[C@@H]3CC[C@@]2(C)C4)cc1
[1]
  CC50 at 72 h: 5.9 µM
Leishmania braziliensis [2]
  EC50: 2.3 µM
[3]
  selectivity ratio: 3.1

## C[C@]12C=C[C@@]3(CC[C@H]4[C@@](C)(CCC[C@@]4(C)C(=O)O)[C@@H]3CC1)C2 [MONOGINOIC ACID]
[1]
  CC50 at 72 h: 130 µM
Leishmania braziliensis [2]
  EC50: > 66 µM
[3]
  selectivity ratio: > 2

## C[C@]12CC[C@H]3[C@]4(C)CCC[C@@](C)(C(=O)O)[C@H]4CC[C@@]3(C1)[C@H]1O[C@H]12
[1]
  CC50 at 72 h: 64.8 µM
Leishmania braziliensis [2]
  EC50: 43.3 µM
[3]
  selectivity ratio: 1.5

## CCOC(=O)[C@]1(C)CCC[C@@]2(C)[C@@H]3CC[C@@]4(C)C[C@]3(CC[C@@H]21)CC4=O
[1]
  CC50 at 72 h: 51.9 µM
Leishmania braziliensis [2]
  EC50: 36.3 µM
[3]
  selectivity ratio: 0.86

## C[C@@]12CC[C@@H]3[C@@](CC[C@@H]4[C@](C)(CO)CCC[C@]43C)(CC1)C2
[1]
  CC50 at 72 h: 29.6 µM
Leishmania braziliensis [2]
  EC50: 18.1 µM
[3]
  selectivity ratio: 1.6

## CCOC(=O)[C@]1(C)CCC[C@@]2(C)[C@@H]3CC[C@@]4(C)C[C@]3(CC[C@@H]21)C/C4=N/NS(=O)(=O)c1ccc(C)cc1
[1]
  CC50 at 72 h: 8.8 µM
Leishmania braziliensis [2]
  EC50: 3 µM
[3]
  selectivity ratio: 3.5

## C[C@@H]1[C@H](O)[C@@H](C)/C=C/C=C/C=C/C=C/C=C/C=C/C=C/[C@H](O[C@@H]2O[C@H](C)[C@@H](O)[C@H](N)[C@@H]2O)C[C@@H]2O[C@](O)(C[C@@H](O)C[C@@H](O)[C@H](O)CC[C@@H](O)C[C@@H](O)CC(=O)O[C@H]1C)C[C@H](O)[C@H]2C(=O)O [AMPHOTERICIN B]
[1]
  CC50 at 72 h: 54.4 µM
Leishmania braziliensis [2]
  EC50: 0.8 µM
[3]
  selectivity ratio: 71.8

## C[C@]12C=C[C@@]3(CC[C@@H]4[C@](C)(CO)CCC[C@@]4(C)[C@@H]3CC1)C2
Leishmania braziliensis [4]
  Activity: <500
Syrian golden hamster [5]
  Activity: Active
Leishmania braziliensis [6]
  Activity: 50%
Syrian golden hamster [7]
  Activity: Active
[8]
  Activity: Non-Toxic
[9]
  Activity: Toxic
[10]
  Activity: Toxic
[11]
  Activity: Toxic
Leishmania braziliensis [12]
  Activity: 50%
Leishmania braziliensis [13]
  Activity: 0%
[14]
  Activity: Non-Toxic
Leishmania braziliensis [15]
  Activity: 16.7%
[1]
  CC50 at 72 h: 114 µM
Leishmania braziliensis [16]
  Activity: 16.7%
[17]
  Activity: Non-Toxic
[18]
  Activity: Toxic
Leishmania braziliensis [19]
  Activity: 0%
[20]
  Activity: Toxic
Leishmania braziliensis [2]
  EC50: 16 µM
Leishmania braziliensis [21]
  Activity: 50%
Leishmania braziliensis [22]
  Activity: 16.7%
Syrian golden hamster [23]
  Activity: Active
[3]
  selectivity ratio: 5.1
[24]
  Activity: Toxic
[25]
  Activity: Non-Toxic

## CCOC(=O)[C@]1(C)CCC[C@@]2(C)[C@@H]3CC[C@@]4(C)C[C@]3(CC[C@@H]21)C[C@H]4O
[1]
  CC50 at 72 h: 28.8 µM
Leishmania braziliensis [2]
  EC50: 13.6 µM
[3]
  selectivity ratio: 1.4

## C[C@]12CC[C@H]3[C@]4(C)CCC[C@@](C)(CO)[C@H]4CC[C@@]3(C1)[C@H]1O[C@H]12
[1]
  CC50 at 72 h: 118 µM
Leishmania braziliensis [2]
  EC50: > 63 µM
[3]
  selectivity ratio: > 1.9

## MEGLUMINE ANTIMONATE
Syrian golden hamster [26]
  Activity: Active
Leishmania braziliensis [27]
  Activity: 0%
Leishmania braziliensis [28]
  Activity: 16.7%
Syrian golden hamster [29]
  Activity: Active
Leishmania braziliensis [30]
  Activity: 66.7%
Syrian golden hamster [31]
  Activity: Active
Syrian golden hamster [32]
  Activity: Active
Leishmania braziliensis [33]
  Activity: 16.7%

## C[C@@]12CC[C@@H]3[C@@](CC[C@H]4[C@@]3(C)CCC[C@@]4(C)C(=O)O)(CC1=O)C2 [ISOSTEVIOL]
[1]
  CC50 at 72 h: 66.9 µM
Leishmania braziliensis [2]
  EC50: > 20 µM
[3]
  selectivity ratio: > 3.3
